Laboratory results: patent US11312781B2, “Antigen binding molecules that bind LIGHT” (Capella Bioscience Ltd., priority 2018, dated 2022)

Columns and labels:
[1] = test system: CMV stimulated human PBMC; assay: Human PBMC antigen specific (CMV) recall response in vitro, cytokines by Luminex; format: cell-based; details: CMV stimulation, 5 day incubation; for IFN gamma production from PBMC: FIG. 11B
Experimental: In order to test the efficacy of anti-LIGHT mAbs on stimulated PBMC a recall antigen CMV (cytomegalovirus) lysate was utilised to stimulate PBMC from human CMV-positive donors (ImmunXperts, Belgium). 200 000 cells per well in RPMI (Thermofisher cat. no. 11875) plus 10% FBS (GIBCO) was added to CMV lysate (Serion immunologics cat. no. BA109VS, final concentration 10 ug/ml) with test mAbs in a volume of 200 ul. After a 5 day incubation at 37C and 5% CO2 the media was recovered by centrifugation and assayed for cytokines by Luminex immunoassay (ThermoFisher).

[2] = test system: DSS-induced colitis in hu-NOG mice; assay: DSS-induced acute colitis in humanized (hu-NOG) mice; format: in vivo, mouse (hu-NOG); details: i.p. days 0, 3, 6, 9, versus IgG control, FIG. 9
Experimental: The experiments were carried out with the NOD/Shi-scid/IL-2Rγnull immunodeficient mouse strain (NOG) engrafted with CD34+ hematopoietic stem cells isolated from human cord blood as described in Manfroi B et al. (Cancer Res. 2017; 77:1097-1107). The reconstitution of the human immune system in the mice occurred for at least 14 weeks, and hu-mice were used that had at least 25% human CD45+/total CD45 cells. Female hu-NOG mice were randomised into 3 groups (n=10) taking into account the humanization rate and the CD34+ cell donors. All animal studies described in this study have been reviewed and approved by the local ethic committee (CELEAG). Mice were allowed to acclimate to the experimental environment for 5 days prior to the beginning of the experiment. The DSS was administrated for 7 days, from day 2 to 8. The DSS (3%) was added to the drinking water (ad libitum) and freshly renewed every two days.
All treatments started before the DSS-induced colitis. 3B04 variant 16 (5 mg/kg) and the isotype control and anti-TNF (Humira) antibodies (10 mg/kg) were administrated i.p. on days 0, 3, 6, 9. The experiment was terminated on day 12. The following parameters were recorded daily for 12 days: body weight in grams (g); diarrhea and stool consistency; bleeding and mortality. The global clinical score was calculated as follows: […]

Compound	IL-17 production from PBMC ([1]; FIG. 11A)	IFN gamma production from PBMC [1]	Global clinical score [2]
C[C@@H]1CCN(C(=O)CC#N)C[C@@H]1N(C)c1ncnc2[nH]ccc12 [Tofacitinib, reference compound]	inhibited	inhibited	
Opdivo: anti-PD-1 antibody, positive control in the PBMC assay (10 ug/ml) [reference compound]		increased	
adalimumab [humira, reference compound]			significant drop in the global clinical score from days 9 to 11
